Ten compounds from patent publication US20150150893A1, “ANDROGRAPHOLIDE ANALOGS AND THEIR USE FOR MEDICATION” (LIAONING LIFENG SCIENTIFIC & TECHNOLOGY DEVELOPMENT COMPANY …, priority 2012, published 2015) can be followed below.

Format in all cases: cell-based
The subject of one assay is Rift Valley fever virus. In words: microbe, parasite or virus in culture. To be noted: read-out: In-Vitro Antiviral Screening Result (EC50) E.
The test system of a further assay is SARS coronavirus. The assay is described as follows: microbe, parasite or virus in culture. The following applies: Severe acute respiratory syndrome coronavirus, read-out: In-Vitro Antiviral Screening Result (EC50) F.
The next assay relates to many virus. In words: Antivirus studies in vitro, summary over the virus panel. The following applies: read-out: EC50 against many virus. The procedure:
compounds were diluted to 20 mg/mL in DMSO then prepared in for log 10 dilutions of 100 μg/mL down to 0.1 μg/mL) in MEM solution with 50 μg/mL gentamicin and 2% FBS. Each dilution was added to 5 wells of a 96-well plate with 80-100% confluent cells. Three wells of each dilution were infected with virus, and two wells remained uninfected as toxicity controls. The multiplicity of infection (MOI) was as low as possible to achieve CPE within 3-5 days of incubation. A known active compound was tested in parallel as a control. After untreated virus control wells reached maximum cytopathic effect (CPE), each well was scored microscopically. Plates were then stained with neutral red dye for approximately 2 hours, then supernatant dye was removed from the wells and the incorporated dye was extracted in 50:50 Sorensen citrate buffer/ethanol, then the optical density was read on a spectrophotometer.

Assay [1] deals with Venezuelan equine encephalitis virus. The assay is described as follows: microbe, parasite or virus in culture. The following applies: read-out: In-Vitro Antiviral Screening Result (EC50) G.
For the next assay, the system named is Influenza A virus H1N1. The assay is described as follows: microbe, parasite or virus in culture. The following applies: H1N1, read-out: In-Vitro Antiviral Screening Result (EC50) H.
The subject of assay [2] is Japanese encepahalitis virus. The following applies: read-out: In-Vitro Antiviral Screening Result (EC50) C.

SMILES strings stand for the structures.

For `CN1C(=O)CN2C=C(/C=C3C=C(/C=C/C4C5(CCC6[C@]4(C)CC[C@@H](O)[C@@]6(C)CO)CO5)C(=O)O\3)C=CC21` (stereo partly drawn) [Example 68, 11,12-dedihydro-14-deoxy-(E)-15-((1-methyl-2-oxo-1,2,3,8a-tetrahydroimidazo[1,2-a]pyridin-6-yl)methylene)-8,17-epoxyandrographolide], the EC50 (in general, the concentration giving half of the maximal effect) in the assay with Rift Valley fever virus was more than 100 µg/mL; in the assay on SARS coronavirus it was less than 50 µg/mL; in the assay with many virus, less than 50 µg/mL; in assay [1], less than 50 µg/mL; in the assay on Influenza A virus H1N1, more than 100 µg/mL; in assay [2], less than 50 µg/mL.

For `C[C@]12CC[C@@H](O)[C@@](C)(CO)C1CCC1(CO1)C2/C=C/C1=CC(=C\c2cnc(N3CCCC3CO)nc2)/OC1=O` (stereo partly drawn) [Example 69, 11,12-dedihydro-14-deoxy-(E)-15-((2-(2-(hydroxymethyl)pyrrolidin-1-yl)pyrimidin-5-yl)methylene)-8,17-epoxyandrographolide], the EC50 in the assay with Rift Valley fever virus is less than 50 µg/mL; in the assay with SARS coronavirus, less than 50 µg/mL; in the assay on many virus it was less than 50 µg/mL; in assay [1] it was more than 100 µg/mL; in the assay with Influenza A virus H1N1, less than 100 µg/mL; in assay [2], more than 100 µg/mL.

On to `CN1CCN(c2ccc(/C=C3C=C(/C=C/C4C5(CCC6[C@]4(C)CC[C@@H](O)[C@@]6(C)CO)CO5)C(=O)O\3)cc2)CC1` (stereo partly drawn) [Example 71, 11,12-dedihydro-14-deoxy-(E)-15-(4-(4-methylpiperazin-1-yl)benzylidene)-8,17-epoxyandrographolide], for which the EC50 with Rift Valley fever virus is more than 100 µg/mL; in the assay with SARS coronavirus, less than 100 µg/mL; with many virus, less than 50 µg/mL; in assay [1] it was less than 50 µg/mL; with Influenza A virus H1N1 it was less than 100 µg/mL; in assay [2], less than 50 µg/mL.

For `CN(C)c1ccc(/C=C2C=C(/C=C/C3C4(CO4)C(N4CCOCC4)CC4[C@]3(C)CC[C@@H](O)[C@@]4(C)CO)C(=O)O\2)cc1` (stereo partly drawn) [Example 76, 7-(4-morpholino)-11,12-dedihydro-14-deoxy-15-(4-(dimethylamino)benzylidene)andrographolide], the EC50 is less than 100 µg/mL in the assay with Rift Valley fever virus; less than 50 µg/mL in the assay on SARS coronavirus; less than 50 µg/mL with many virus; more than 100 µg/mL in assay [1]; less than 100 µg/mL in the assay on Influenza A virus H1N1; more than 100 µg/mL in assay [2].

Regarding `C[C@]12CC[C@@H](O)[C@@](C)(CO)C1CCC1(CO1)C2/C=C/C1=CC(=C\c2ccc(-n3ccnc3)cc2)/OC1=O` (stereo partly drawn) [Example 77, 11,12-dedihydro-14-deoxy-(E)-15-(4-(1H-imidazol-1-yl)benzylidene)-8,17-epoxyandrographolide], the EC50 in the assay with Rift Valley fever virus is less than 50 µg/mL; with SARS coronavirus, less than 100 µg/mL; in the assay with many virus, less than 50 µg/mL; in assay [1] it was more than 100 µg/mL; in the assay with Influenza A virus H1N1, less than 100 µg/mL; in assay [2] it was less than 100 µg/mL.

With `CN(C)c1ccc(/C=C2C=C(/C=C/C3C4(CCC5[C@]3(C)CC[C@@H](O)[C@@]5(C)CO)CO4)C(=O)O\2)c(O)c1` (stereo partly drawn) [Example 78], the 50% effective concentration (EC50) in the assay with Rift Valley fever virus is less than 100 µg/mL; in the assay on SARS coronavirus it was less than 50 µg/mL; in the assay on many virus, less than 50 µg/mL; in assay [1], less than 100 µg/mL; with Influenza A virus H1N1, more than 100 µg/mL; in assay [2] it was less than 100 µg/mL.

For `C=C1CCC2[C@](C)(CC[C@@H](O)[C@@]2(C)CO)C1/C=C/C1=CC(=C\c2ccc(-n3ccnc3)cc2)/OC1=O` (stereo partly drawn) [Example 79, 11,12-dedihydro-14-deoxy-(E)-15-(4-(1H-imidazol-1-yl)benzylidene)andrographolide], the EC50 (with Rift Valley fever virus; in the assay with SARS coronavirus; with many virus; in assay [1]; in the assay with Influenza A virus H1N1; in assay [2]) was less than 50 µg/mL in each case.

For `CC(=O)OCC1(C)C(OC(C)=O)CCC2(C)C(/C=C/C3=CCOC3=O)C3C(=Nc4cncn43)CC12` (stereo not drawn) [Example 95], the EC50 in the assay with Rift Valley fever virus was more than 100 µg/mL; in the assay with SARS coronavirus, less than 50 µg/mL; with many virus it was less than 50 µg/mL; in assay [1], less than 100 µg/mL; in the assay on Influenza A virus H1N1 it was less than 50 µg/mL; in assay [2] it was more than 100 µg/mL.

As for `C=C1C(N2CCOCC2)CC2[C@](C)(CC[C@@H](O)[C@@]2(C)CO)C1/C=C/C1=CC(=C\c2ccc(N(C)C)cc2)/OC1=O` (stereo partly drawn) [Example 124], the EC50 in the assay with Rift Valley fever virus was less than 50 µg/mL; in the assay on SARS coronavirus, less than 50 µg/mL; with many virus, less than 50 µg/mL; in assay [1], less than 50 µg/mL; with Influenza A virus H1N1, less than 100 µg/mL; in assay [2] it was less than 50 µg/mL.

For `C=C1C(NC(C)C(=O)NC2=NCC=N2)CC2[C@](C)(CC[C@@H](O)[C@@]2(C)CO)C1/C=C/C1=CC(=C\c2ccc(N(C)C)cc2)/OC1=O` (stereo partly drawn) [Example 188], the EC50 with Rift Valley fever virus was less than 100 µg/mL; in the assay with SARS coronavirus it was less than 50 µg/mL; with many virus, less than 50 µg/mL; in assay [1], less than 100 µg/mL; in the assay on Influenza A virus H1N1 it was more than 100 µg/mL; in assay [2] it was less than 100 µg/mL.
